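Method: 48-hour compound exposure of cells in 96-well plates, five concentrations, linear interpolation of endpoints. At the GI50, growth is halved.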 Calls of active or inactive are those of the source. Rule as the data show it: active = GI50 up to about 1.1 µM and inactive = higher.
Columns and labels:
Assay in all cases: growth of human tumour cells (NCI), 48 h
SK-MEL-2 = tested on: SK-MEL-2
HL-60 = tested on: HL-60
TK-10 = tested on: TK-10
SK-MEL-28 = tested on: SK-MEL-28
NCI-H226 = tested on: NCI-H226
SK-OV-3 = tested on: SK-OV-3
HOP-62 = tested on: HOP-62
CCRF-CEM = tested on: CCRF-CEM
NCI-H522 = tested on: NCI-H522
LOX IMVI = tested on: LOX IMVI
U-251 = tested on: U-251
COLO 205 = tested on: COLO 205
NCI-H23 = tested on: NCI-H23
IGROV-1 = tested on: IGROV-1
HCC 2998 = tested on: HCC 2998
M14 = tested on: M14
NCI-H460 = tested on: NCI-H460
SW-620 = tested on: SW-620
OVCAR-4 = tested on: OVCAR-4

Measured: GI50

CCOC(=O)CC(NC(=O)c1ccc(/N=N/N(C)C)cc1)C(=O)OCC (stereo unspecified)
inactive: SK-MEL-2 > 100 µM | HL-60 > 100 µM | TK-10 > 100 µM | SK-MEL-28 > 100 µM | NCI-H226 > 100 µM | SK-OV-3 > 100 µM | HOP-62 > 100 µM | CCRF-CEM > 100 µM | NCI-H522 > 100 µM | LOX IMVI > 100 µM | U-251 > 100 µM | COLO 205 > 100 µM | NCI-H23 > 100 µM | IGROV-1 > 100 µM | HCC 2998 > 100 µM | M14 > 100 µM | NCI-H460 > 100 µM | SW-620 > 100 µM | OVCAR-4 > 100 µM

Nc1ccc(/C=C/c2ccnc3ccccc23)cc1
inactive: SK-MEL-2 17.7 µM | HL-60 3.24 µM | TK-10 17.4 µM | SK-MEL-28 32.4 µM | NCI-H226 17.7 µM | HOP-62 15.3 µM | CCRF-CEM 12.1 µM | NCI-H522 13.2 µM | U-251 16.8 µM | COLO 205 22.9 µM | NCI-H23 20 µM | IGROV-1 28.2 µM | HCC 2998 28.4 µM | M14 20.2 µM | NCI-H460 16.1 µM | SW-620 24.7 µM | OVCAR-4 30 µM

O=C1OC(c2ccc(Cl)cc2)(c2ccc(Cl)cc2)c2c1ccc1ccccc21
inactive: SK-MEL-2 > 100 µM | HL-60 8.69 µM | TK-10 > 100 µM | SK-MEL-28 > 100 µM | NCI-H226 71.4 µM | SK-OV-3 > 100 µM | CCRF-CEM > 100 µM | NCI-H522 44.4 µM | LOX IMVI > 100 µM | U-251 > 100 µM | COLO 205 > 100 µM | NCI-H23 8.67 µM | IGROV-1 > 100 µM | HCC 2998 > 100 µM | NCI-H460 > 100 µM | SW-620 > 100 µM | OVCAR-4 > 100 µM

Cc1cc2c(C(C)C)c(O)c(O)c(/C=N/c3ccccc3)c2c(O)c1-c1c(C)cc2c(C(C)C)c(O)c(O)c(/C=N/c3ccccc3)c2c1O
inactive: SK-MEL-2 > 100 µM | HL-60 > 100 µM | TK-10 > 100 µM | SK-MEL-28 > 100 µM | NCI-H226 > 100 µM | SK-OV-3 > 100 µM | HOP-62 > 100 µM | CCRF-CEM > 100 µM | NCI-H522 > 100 µM | LOX IMVI > 100 µM | COLO 205 > 100 µM | IGROV-1 > 100 µM | HCC 2998 > 100 µM | M14 > 100 µM | NCI-H460 > 100 µM | SW-620 > 100 µM | OVCAR-4 > 100 µM

COC(=O)c1cccc(C(=O)OC)c1
inactive: SK-MEL-2 > 100 µM | HL-60 > 100 µM | TK-10 > 100 µM | SK-MEL-28 > 100 µM | NCI-H226 > 100 µM | SK-OV-3 > 100 µM | HOP-62 > 100 µM | CCRF-CEM > 100 µM | NCI-H522 > 100 µM | LOX IMVI > 100 µM | U-251 > 100 µM | COLO 205 > 100 µM | NCI-H23 > 100 µM | HCC 2998 > 100 µM | M14 > 100 µM | NCI-H460 > 100 µM | SW-620 > 100 µM | OVCAR-4 > 100 µM

CCOC(=O)NC(=O)c1cn(CCSCCOC(=O)NCCCCCCNC(=O)OCCSCCn2cc(C(=O)NC(=O)OCC)c(=O)[nH]c2=O)c(=O)[nH]c1=O
inactive: HL-60 > 100 µM | TK-10 > 100 µM | SK-MEL-28 > 100 µM | SK-OV-3 > 100 µM | HOP-62 > 100 µM | CCRF-CEM > 100 µM | LOX IMVI > 100 µM | U-251 > 100 µM | COLO 205 > 100 µM | NCI-H23 > 100 µM | IGROV-1 > 100 µM | M14 > 100 µM | NCI-H460 > 100 µM | SW-620 > 100 µM | OVCAR-4 > 100 µM

CCOC1=C2N=C(Cc3ccc(F)cc3)NC2C(=O)c2ccccc21 (stereo unspecified)
inactive: SK-MEL-2 17.6 µM | HL-60 4.68 µM | TK-10 32.6 µM | SK-MEL-28 27.5 µM | SK-OV-3 38.2 µM | HOP-62 58.9 µM | CCRF-CEM 8.26 µM | NCI-H522 8.67 µM | LOX IMVI 22.2 µM | U-251 33 µM | COLO 205 23.3 µM | NCI-H23 18.3 µM | IGROV-1 66.7 µM | HCC 2998 25.8 µM | M14 25.5 µM | NCI-H460 12.6 µM

NC1(C(=O)O)CCc2ccc(N(CCCl)CCCl)cc2C1 (stereo unspecified)
inactive: SK-MEL-2 38.7 µM | HL-60 9.82 µM | SK-MEL-28 > 100 µM | NCI-H226 > 100 µM | SK-OV-3 > 100 µM | HOP-62 22.4 µM | CCRF-CEM 5.32 µM | NCI-H522 26.7 µM | LOX IMVI 39.7 µM | U-251 23.8 µM | COLO 205 > 100 µM | NCI-H23 > 100 µM | IGROV-1 > 100 µM | HCC 2998 > 100 µM | NCI-H460 10.2 µM | SW-620 > 100 µM | OVCAR-4 > 100 µM
